Data published in ChEMBL document CHEMBL4808180, “Identification of 2,2-Dimethylbutanoic Acid (HST5040), a Clinical Development Candidate for the Treatment of Propionic Acidemia and Methylmalonic Acidemia” (J Med Chem, 2021).

How the values were obtained:
[1] = Reduction of methylmalonyl-CoA in human hepatocytes derived from methylmalonic acidemia pretreated for 30 mins followed by 13C-isoleucine addition and measured after 1 hr by MS/MS analysis; assay type: functional, cell-based; conditions: hepatocyte
[2] = Reduction of methylmalonyl-CoA in human hepatocytes derived from methylmalonic acidemia at 30 uM pretreated for 30 mins followed by 13C-isoleucine addition and measured after 1 hr by MS/MS analysis relative to control; assay type: functional, Hepatocyte; set-up: scale not given: the % may be the effect or the level left; conditions: time 90 min, 1.5 h
[3] = Reduction of acetyl carnitine in human hepatocytes derived from propionic acidemia patient pretreated for 30 mins followed by 13C-isoleucine addition and measured after 1 hr by MS/MS analysis; assay type: functional, cell-based; conditions: hepatocyte
[4] = Reduction of acetyl carnitine in human hepatocytes derived from methylmalonic acidemia patient at 30 uM pretreated for 30 mins followed by 13C-isoleucine addition and measured after 1 hr by MS/MS analysis; assay type: functional, Hepatocyte; set-up: scale not given: the % may be the effect or the level left; conditions: time 90 min, 1.5 h
[5] = Reduction of 2-Methylcitric acid in human hepatocytes derived from propionic acidemia patient pretreated for 30 mins followed by 13C-isoleucine addition and measured after 1 hr by MS/MS analysis; assay type: functional, cell-based; conditions: hepatocyte
[6] = Reduction of 2-Methylcitric acid in human hepatocytes derived from methylmalonic acidemia patient pretreated for 30 mins followed by 13C-isoleucine addition and measured after 1 hr by MS/MS analysis; assay type: functional, cell-based; conditions: hepatocyte
[7] = Reduction of acetyl-CoA in human hepatocytes derived from propionic acidemia patient pretreated for 30 mins followed by 13C-isoleucine addition and measured after 1 hr by MS/MS analysis; assay type: functional, cell-based; conditions: hepatocyte
[8] = Reduction of acetyl-CoA in human hepatocytes derived from propionic acidemia patient at 30 uM pretreated for 30 mins followed by 13C-isoleucine addition and measured after 1 hr by MS/MS analysis relative to control; assay type: functional, Hepatocyte; set-up: scale not given: the % may be the effect or the level left; conditions: time 90 min, 1.5 h
[9] = Reduction of CoASH in human hepatocytes derived from propionic acidemia patient at 30 uM pretreated for 30 mins followed by 13C-isoleucine addition and measured after 1 hr by MS/MS analysis relative to control; assay type: functional, Hepatocyte; set-up: scale not given: the % may be the effect or the level left; conditions: time 90 min, 1.5 h
[10] = Drug metabolism in human hepatocytes assessed as formation of 2,2-dimethylbutanoic acid-CoA incubated for 1 hrs by MS/MS analysis; assay type: ADME, cell-based; conditions: Hepatocyte
[11] = Apparent permeability across apical to basal side in human MDCK2-MDR1; assay type: ADME, Canis lupus familiaris; conditions: dog, MDCK-MDR1
[12] = Protein binding in Gottingen minipig plasma at 40 uM incubated for 4 hrs by equilibrium dialysis; assay type: ADME, cell-free, Sus scrofa domesticus; conditions: pig, read-out: PPB (converted)
[13] = Protein binding in human plasma at 40 uM incubated for 4 hrs by equilibrium dialysis; assay type: ADME, cell-free
[14] = Ratio of drug level in erythrocyte to plasma in Sprague-Dawley rat; assay type: ADME; conditions: erythrocytes and plasma
[15] = Ratio of drug level in erythrocyte to plasma in human; assay type: ADME; conditions: erythrocytes and plasma
[16] = Reduction of propionyl-CoA in human hepatocytes derived from methylmalonic acidemia at 30 uM pretreated for 30 mins followed by 13C-isoleucine addition and measured after 1 hr by MS/MS analysis relative to control; assay type: functional, Hepatocyte; set-up: scale not given: the % may be the effect or the level left; conditions: time 90 min, 1.5 h
[17] = Half life in CD1 mouse at 30 mg/kg, iv; assay type: ADME, organism-based; conditions: in vivo
[18] = Half life in CD1 mouse at 300 mg/kg, po; assay type: ADME, organism-based; conditions: in vivo
[19] = Volume of distribution of CD1 mouse at 30 mg/kg, iv; assay type: ADME, organism-based; conditions: in vivo
[20] = AUC (0 to infinity) in CD1 mouse at 30 mg/kg, iv; assay type: ADME, organism-based; set-up: time infinity, route intravenous, dose 30 mg/kg; conditions: in vivo
[21] = Tmax in Sprague-Dawley rat at 50 mg/kg, po; assay type: ADME, organism-based; conditions: in vivo
[22] = Clearance in Sprague-Dawley rat at 10 mg/kg, iv; assay type: ADME, organism-based; conditions: in vivo
[23] = AUC (0 to infinity) in Sprague-Dawley rat at 200 mg/kg, po; assay type: ADME, organism-based; set-up: route oral, time infinity, dose 200 mg/kg; conditions: in vivo
[24] = Induction of toxicity in minipig assessed as induction of adverse effect at 300 mg/kg/day; assay type: organism-based, Sus scrofa domesticus; conditions: pig, in vivo
[25] = Oral bioavailability in Sprague-Dawley rat at 10 mg/kg; assay type: ADME, organism-based; conditions: in vivo
[26] = Oral bioavailability in Sprague-Dawley rat at 50 mg/kg; assay type: ADME, organism-based; conditions: in vivo
[27] = Cmax in Gottingen minipig at 10 mg/kg, po using radiolabeled compound by quantitative whole-body autoradiography; assay type: ADME, organism-based, Sus scrofa domesticus; set-up: route oral, dose 10 mg/kg; conditions: pig, in vivo
[28] = Drug excretion in Gottingen minipig urine at 10 mg/kg, po using radiolabeled compound by quantitative whole-body autoradiography; assay type: ADME, organism-based, Sus scrofa domesticus; conditions: pig, in vivo, 96 h
Hepatocyte = assay: Cytotoxicity against human hepatocytes assessed as reduction in cell viability using radiolabeled compound; assay type: cell-based
[29] = Drug metabolism in Sprague-Dawley rat urine assessed as HST5040-glucuronide metabolite formation at 10 mg/kg administered as single dose by LC/MS analysis; assay type: ADME, organism-based; conditions: in vivo
[30] = Drug metabolism in Sprague-Dawley rat feces assessed as HST5040-carnitine metabolite formation at 10 mg/kg administered as single dose by LC/MS analysis; assay type: ADME, organism-based; conditions: in vivo
[31] = Drug metabolism in Gottingen minipig plasma assessed as HST5040-glucuronide metabolite formation at 10 mg/kg administered as single dose by LC/MS analysis; assay type: ADME, organism-based, Sus scrofa domesticus; conditions: pig, in vivo
Cytochrome P450 3A4 = Cytochrome P450 3A4 (Homo sapiens, UniProt P08684); assay: Time-dependent inhibition of CYP3A4 in human liver microsomes using midazolam as substrate preincubated for 30 mins; assay type: ADME
OATP1B3 = target: T1, OATP1B3 (Homo sapiens, UniProt Q9NPD5); assay: Inhibition of human OATP1B3 assessed as reduction in OATP1B3-mediated E217betaG transport at 14900 uM relative to control; conditions: not told, probe E217betaG
T1 sequence (Q9NPD5 whole entry): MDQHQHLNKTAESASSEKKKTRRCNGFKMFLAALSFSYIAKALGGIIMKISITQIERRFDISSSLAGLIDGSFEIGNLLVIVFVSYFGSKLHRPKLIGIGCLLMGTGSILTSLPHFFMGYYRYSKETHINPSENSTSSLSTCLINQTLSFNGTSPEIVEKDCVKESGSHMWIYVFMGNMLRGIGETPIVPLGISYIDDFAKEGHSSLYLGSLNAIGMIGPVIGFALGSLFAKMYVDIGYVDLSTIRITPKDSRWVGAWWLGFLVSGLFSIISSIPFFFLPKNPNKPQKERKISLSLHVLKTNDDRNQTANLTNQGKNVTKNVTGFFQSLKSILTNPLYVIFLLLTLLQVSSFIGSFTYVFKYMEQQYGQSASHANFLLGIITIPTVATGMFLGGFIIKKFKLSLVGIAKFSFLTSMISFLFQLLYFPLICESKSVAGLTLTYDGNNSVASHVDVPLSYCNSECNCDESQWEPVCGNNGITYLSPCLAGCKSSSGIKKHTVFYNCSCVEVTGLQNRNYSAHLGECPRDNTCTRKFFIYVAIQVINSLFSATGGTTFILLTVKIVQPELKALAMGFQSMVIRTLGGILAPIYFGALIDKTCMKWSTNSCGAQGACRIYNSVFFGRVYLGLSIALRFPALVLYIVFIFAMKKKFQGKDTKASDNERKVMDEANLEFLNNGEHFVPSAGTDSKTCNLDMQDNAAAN

[32] = Induction of toxicity in minipig assessed as increase in vacuole size in the epithelial cells of renal tubules at >=50 mg/kg; assay type: organism-based, Sus scrofa domesticus; conditions: pig, in vivo
[33] = Induction of toxicity in minipig assessed as increase in serum albumin concentration at 300 mg/kg/day; assay type: organism-based, Sus scrofa domesticus; conditions: pig, in vivo
[34] = Induction of toxicity in minipig assessed as increase in albumin to […] ratio at 300 mg/kg/day; assay type: organism-based, Sus scrofa domesticus; conditions: pig, in vivo

Chain of Cytochrome P450 3A4 (P08684 whole entry): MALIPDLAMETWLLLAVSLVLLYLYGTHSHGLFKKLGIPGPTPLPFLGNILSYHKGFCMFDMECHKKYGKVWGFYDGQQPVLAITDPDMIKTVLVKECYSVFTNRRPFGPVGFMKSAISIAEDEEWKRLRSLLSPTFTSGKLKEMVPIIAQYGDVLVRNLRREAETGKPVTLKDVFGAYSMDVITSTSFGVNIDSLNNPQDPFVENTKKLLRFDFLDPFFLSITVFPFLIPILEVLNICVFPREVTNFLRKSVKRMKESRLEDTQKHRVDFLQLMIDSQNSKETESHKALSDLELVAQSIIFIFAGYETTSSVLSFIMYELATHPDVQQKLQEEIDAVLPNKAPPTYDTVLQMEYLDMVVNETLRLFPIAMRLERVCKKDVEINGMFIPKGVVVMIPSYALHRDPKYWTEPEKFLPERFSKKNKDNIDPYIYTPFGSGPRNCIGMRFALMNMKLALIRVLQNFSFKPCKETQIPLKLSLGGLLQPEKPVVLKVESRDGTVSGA

Papp A→B [11]: > 20 ×10⁻⁶ cm/s | fraction unbound at 4 h, 40 µM [12]: 0.55 | PPB [13]: 0% | Kp [14]: 0.649 | Kp [15]: 0.343 | half-life [17]: 49.9 min | half-life [18]: 115 min | Vd [19]: 0.469 L/kg | AUC(0-inf) [20]: 70.2 µg·h/mL | Tmax [21]: 20 min | clearance [22]: 17.3 mL/min/kg | AUC(0-inf) [23]: 244 µg·h/mL | bioavailability [25]: 57.1% | bioavailability [26]: 68.3% | Cmax [27]: 16100 ng/mL | Drug excretion [28]: 77.4% | Drug metabolism [29]: Metabolite_Detected | Drug metabolism [30]: Metabolite_Detected | Drug metabolism [31]: Metabolite_Detected | IC50 (Cytochrome P450 3A4): > 10000 µM | inhibition at 14900 µM (OATP1B3): 31.5%
SMILES: CCC(C)(C)C(=O)O [DIMEBUTIC ACID]
EC50 [1]: 2 µM | Activity [2]: -55% | EC50 [3]: 4.8 µM | Activity [4]: 44.6% | EC50 [5]: 1.1 µM | EC50 [6]: 0.8 µM | EC50 [7]: 2.3 µM | Activity [8]: 54% | Activity [9]: -31.3% | EC50 [10]: 5.9 µM | Activity [16]: -74.2% | Activity [24]: Non-Toxic | Activity (Hepatocyte): Non-Toxic | Activity [32]: Toxic | Activity [33]: Toxic | Activity [34]: Toxic
